Assay results: ChEMBL document CHEMBL1201862, “PubChem BioAssay data set” (2004)
Several values for one entry are separate records, joined by “and”; a condition that tells them apart may be missing. Equal values may be shown once.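 Interpolation was linear, between the two tested concentrations surrounding the appropriate level; five concentrations were tested over 48 hours in 96-well plates. At the GI50, growth is halved.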 Activity calls are given as the source filed them. No stated cut-off is given here; in the data, active = GI50 up to about 1.1 µM and inactive = higher.

Columns and labels:
Test in all cases: inhibition of tumour cell growth, NCI panel, 48 h
[1] = tested on: CAKI-1
[2] = tested on: RPMI-8226
[3] = tested on: NCI-H460
[4] = tested on: UACC-257
[5] = tested on: SF-295
[6] = tested on: KM12
[7] = tested on: K562
[8] = tested on: HT-29
[9] = tested on: CCRF-CEM
[10] = tested on: SK-MEL-5
[11] = tested on: MOLT-4
[12] = tested on: OVCAR-8
[13] = tested on: A549
[14] = tested on: OVCAR-4
[15] = tested on: SF-539
[16] = tested on: A498
[17] = tested on: OVCAR-3
[18] = tested on: M14
[19] = tested on: SNB-78
[20] = tested on: NCI-H522
[21] = tested on: OVCAR-5
[22] = tested on: SNB-19
[23] = tested on: TK-10
[24] = tested on: SF-268
[25] = tested on: NCI-H23
[26] = tested on: SW-620
[27] = tested on: XF498
[28] = tested on: ACHN
[29] = tested on: LXFL 529
[30] = tested on: KM-20L2
[31] = tested on: 786-0
[32] = tested on: EKVX
[33] = tested on: SK-MEL-2
[34] = tested on: SNB-75
[35] = tested on: HCT-116
[36] = tested on: UO-31
[37] = tested on: HCC 2998
[38] = tested on: HOP-62
[39] = tested on: DLD-1
[40] = tested on: U-251
[41] = tested on: Malme-3M
[42] = tested on: SK-MEL-28
[43] = tested on: SN12C
[44] = tested on: DMS-273
[45] = tested on: HL-60
[46] = tested on: LOX IMVI
[47] = tested on: SR
[48] = tested on: UACC-62
[49] = tested on: HOP-92
[50] = tested on: NCI-H226
[51] = tested on: IGROV-1
[52] = tested on: HCT-15
[53] = tested on: RXF 393
[54] = tested on: SK-OV-3
[55] = tested on: M19-MEL
[56] = tested on: COLO 205
[57] = tested on: DMS-114

Measured: GI50

COc1cc2c(cc1OC)C1Cc3ccc(OC)c(OC)c3C[N+]1([O-])CC2 (centres undefined)
inactive: [1] > 100 µM | [2] 74.5 µM | [3] > 100 µM | [4] > 100 µM | [5] > 100 µM | [6] > 100 µM | [7] > 100 µM | [8] > 100 µM | [9] > 100 µM | [10] > 100 µM | [11] > 100 µM | [12] > 100 µM | [13] > 100 µM | [14] > 100 µM | [15] > 100 µM | [16] > 100 µM | [17] > 100 µM | [18] > 100 µM | [19] > 100 µM | [20] > 100 µM | [21] > 100 µM | [22] > 100 µM | [23] > 100 µM | [24] > 100 µM | [25] > 100 µM | [26] > 100 µM | [27] > 100 µM | [28] > 100 µM | [29] > 100 µM | [30] > 100 µM | [31] > 100 µM | [32] > 100 µM | [33] > 100 µM | [34] > 100 µM | [35] > 100 µM | [36] > 100 µM | [37] > 100 µM | [38] > 100 µM | [39] > 100 µM | [40] > 100 µM | [41] > 100 µM | [42] > 100 µM | [43] > 100 µM

C=CN1C(=O)OC(c2ccccc2)C1c1ccccc1 (centres undefined)
inactive: [44] 57.4 µM and > 31.6 µM | [5] > 100 µM and > 99.3 µM | [7] > 31.6 µM and 40.5 µM | [15] 61.1 µM and > 31.6 µM | [21] > 100 µM | [45] > 31.6 µM and 45.2 µM | [26] 40.7 µM and > 31.6 µM | [27] > 10 µM | [46] 49.1 µM and > 78.5 µM | [40] 54.7 µM and > 31.6 µM | [47] > 100 µM

O=C(Nc1ccc(Cl)cc1Cl)/C(Cl)=C1/Sc2ccccc2NC1=O
inactive: [1] 41.2 µM | [2] 24 µM | [3] 38.6 µM | [7] 29.6 µM | [9] 22.8 µM | [10] 19.3 µM | [11] 25.6 µM | [12] 50.5 µM | [13] 39.3 µM | [14] 24.7 µM | [15] 30.2 µM | [16] 66.4 µM | [18] 29.2 µM | [19] 44.9 µM | [20] 18.8 µM | [21] 52.6 µM | [45] 21.9 µM | [22] 34.5 µM | [48] 25.6 µM | [23] 73.5 µM | [24] 26.7 µM | [25] 19.6 µM | [26] 33.7 µM | [27] 1.32 µM | [46] 40.6 µM | [49] 16.8 µM | [28] 38 µM | [29] 22.2 µM | [30] 61.9 µM | [31] 45.3 µM | [32] 58.1 µM | [50] 25.2 µM | [51] 28.6 µM | [33] 15.2 µM | [34] 18 µM | [35] 23 µM | [36] 30 µM | [37] 32 µM | [38] 39.7 µM | [39] 35.4 µM | [40] 32.3 µM | [53] 27.9 µM | [54] 20.8 µM | [55] 37.8 µM | [41] 20 µM | [42] 23.6 µM | [56] 26.6 µM | [43] 28.4 µM | [57] 20.1 µM
25.9 µM: [52]
